Source: publication PMC9241943, “LcCCL28-25, Derived from Piscine Chemokine, Exhibits Antimicrobial Activity against Gram-Negative and Gram-Positive Bacteria In Vitro and In Vivo” (Microbiology Spectrum, 2022)
Residues, ends and D or L forms follow the SMILES beside them.

Columns and labels:
[1] = tested on: Staphylococcus aureus USA300; details: S. aureus USA300
Protocol: The MIC assays were performed as previously described ([43]). Briefly, peptides were plated in a 2-fold dilution series (50 μL/well) of Mueller-Hinton broth (MHB) in Costar 96-well cell culture plates (Corning, NY, USA). Three repeats were set for each concentration. E. coli ATCC 25922, A. hydrophila ATCC 7966, P. aeruginosa PAO1, P. aeruginosa FRD1, S. aureus ATCC 25923, S. agalactiae ATCC 13813, S. pneumoniae ATCC 49619, methicillin-resistant S. aureus ATCC 43300, and methicillin-resistant S. aureus USA300 were cultured in Luria-Bertani (LB) medium, while K. pneumoniae CMCC46117 was cultured in tryptic soy broth (TSB) medium. Incubation was done at 37°C and 150 × g for 12 h. Bacteria were transferred to fresh MHB at a ratio of 1% (vol/vol) and incubated to reach a logarithmic growth phase. Then, 50 μL of a bacterial suspension at 4 × 10^6 CFU/mL was added to each well. After incubation at 37°C for 22 ± 2 h, turbidity was measured using an EnSpire multimode plate reader (PerkinElmer, Singapore) at 595 nm.

Gram-negative bacteria = experiment: Time-kill curves (4x MIC); type: cell-based; details: 4× MIC
Protocol: (§1) Consistent with previous reports, time-kill curves of lcCCL28-25 against Gram-negative and Gram-positive bacteria were performed under 4× MIC conditions ([44]). Bacteria were incubated to the logarithmic growth stage. Bacterial cells in the logarithmic growth phase were diluted to achieve log(CFU/mL) values of ~5 to 6 and incubated with lcCCL28-25 for 1, 2, 4, 8, 16, 30, 60, 120, and 240 min. At each time point, 50-μL amounts of the samples were diluted to different concentrations and plated onto agar plates. After overnight incubation, the numbers of colonies on the plates were counted.

Gram-positive bacteria = experiment: Time-kill curves (4x MIC); type: cell-based; details: 4× MIC
Protocol: as §1

[2] = tested on: P. aeruginosa FRD1 biofilm; experiment: Biofilm eradication assay (crystal violet); type: cell-based, Pseudomonas aeruginosa; details: for biofilm eradication rate: 24-h mature FRD1 biofilm, 2 h
Protocol: In vitro static biofilm models have been reported in many studies ([45][–][47]). A Pseudomonas aeruginosa mucoid strain, FRD1, isolated from a cystic fibrosis patient, was used for the biofilm inhibition and eradication assay. The FRD1 strain was shock cultured to logarithmic growth stage at 37°C and 150 × g. After cleaning using PBS and centrifuging thrice, the bacteria were resuspended in MHB medium (with 0.2% glucose) and gradient diluted to an OD600 value of ~0.01.
For the eradication assay, biofilms of the FRD1 strain were grown in a 96-well plate. Briefly, 100-μL amounts of the bacterial suspension were plated and incubated at 37°C for 24 h. Then, wells containing the biofilms were washed thrice using PBS. The peptide was serially diluted in MHB medium (with 0.2% glucose) and added to the 96-well plates (100 μL/well). The plates were incubated for 2 h at 37°C. Finally, bacterial biofilms were quantified as described above for the biofilm inhibition assay.

E. coli ATCC 25922 = experiment: SYTOX green membrane permeability assay; type: cell-based, Escherichia coli; details: E. coli ATCC 25922, 5 μM SYTOX green, read every 1 min
Protocol: The SYTOX green staining assay was performed to assess peptide-associated membrane damage ([47], [52]). E. coli ATCC 25922 and S. aureus ATCC 25923 cells in the mid-logarithmic phase were collected, washed thrice, and resuspended (5 × 10^7 CFU/mL) in buffer B (10 mM Tris-HCl, pH 7.4, at 25°C). The bacterial suspensions were mixed with 5 μM SYTOX green and incubated for 15 min at room temperature in the dark. Then, the mixtures were added to black, clear-bottom 96-well plates at a density of 100 μL/well. After peptide addition, SYTOX green uptake was monitored using an EnSpire multimode plate reader (PerkinElmer, Singapore) with an excitation wavelength of 485 nm and an emission wavelength of 520 nm. Each measurement interval was 1 min, totaling 30 to 60 times. Melittin was used as the positive control, while bovine serum albumin (BSA) was the negative control.

[3] = tested on: S. aureus ATCC 25923 cells; experiment: Scanning and transmission electron microscopy; type: cell-based, Staphylococcus aureus; details: S. aureus ATCC 25923, 5 μg/mL, 15 min
Protocol: E. coli ATCC 25922 and S. aureus ATCC 25923 cells were cultured and coincubated with or without lcCCL28-25 as described above for fluorescence microscopy.
For scanning electron microscopy (SEM), bacterial cells were fixed with 2.5% glutaraldehyde in PBS (pH 7.35) and attached to 12-mm cover glasses by centrifugation at 75 × g for 6 min using a Cytospin 2 centrifuge (Thermo Fisher Scientific, Schwerte, Germany). Then, cover glasses with attached bacteria were postfixed in 1% aqueous OsO4 for 30 min, dehydrated in a sequence of increasing ethanol concentrations (70%, 80%, and 100%), and critical point dried in a CPD030 (Leica Microsystems, Vienna, Austria). Next, dried samples were mounted on aluminum stubs using conductive carbon tabs, coated with 4 nm of platinum in a CCU-010 sputtering device (Safematic, Bad Ragaz, Switzerland), and imaged by a Supra 50 VP SEM at an acceleration voltage of 2 kV using the in-lens secondary electron detector (Zeiss, Oberkochen, Germany) ([53]).
For transmission electron microscopy (TEM), bacterial cells were obtained by centrifugation after overnight fixation in 2.5% glutaraldehyde (pH 7.35, in PBS) at 4°C. […]

SMILES: CSCC[C@H](NC(=O)[C@H](Cc1c[nH]c2ccccc12)NC(=O)[C@H](CCCCN)NC(=O)[C@@H]1CCCN1C(=O)[C@H](Cc1c[nH]cn1)NC(=O)[C@H](C)N)C(=O)N[C@@H](CCC(=O)O)C(=O)N[C@H](C(=O)N[C@H](C(=O)N[C@@H](CCCNC(=N)N)C(=O)N[C@@H](CO)C(=O)N[C@@H](CCCNC(=N)N)C(=O)N[C@@H](CCC(N)=O)C(=O)N[C@@H](CCCNC(=N)N)C(=O)N[C@@H](CCCCN)C(=O)N[C@@H](CCCCN)C(=O)N[C@@H](CCCCN)C(=O)N[C@@H](Cc1c[nH]cn1)C(=O)N[C@@H](CC(N)=O)C(=O)N[C@@H](CCCCN)C(=O)N[C@@H](CCCNC(=N)N)C(=O)N[C@@H](CCCNC(=N)N)C(=O)N[C@@H](C)C(=O)N[C@H](C(=O)N[C@@H](Cc1ccc(O)cc1)C(=O)O)[C@@H](C)O)C(C)C)C(C)C [lcCCL28-25] (H-AHPKWMEVVRSRQRKKKHNKRRATY-OH; N-terminus and C-terminus assumed)
- decrease in antimicrobial activity with CaCl2 ([1]; 2.5 mM CaCl2 versus peptide only): 2 fold
- decrease in antimicrobial activity with NaCl ([1]; 150 mM NaCl versus peptide only): 4 fold
- reduction of antimicrobial activity under 10% serum ([1]; 10% mouse serum): 4 fold
- reduction of antimicrobial activity under 20% serum ([1]; 20% mouse serum): 8 fold
- reduction of antimicrobial activity under 40% serum ([1]; 40% mouse serum): 32 fold
- time for CFU counts to be reduced by more than half (Gram-negative bacteria): more than 1 h
- time for CFU counts to be reduced by more than half (Gram-positive bacteria): ≤ 10 min
- biofilm eradication rate ([2]; 12.5 μg/mL): more than 80%
- biofilm eradication rate ([2]; 25 μg/mL): above 90%
- concentration required to eradicate ~50% of biofilm ([2]; 24-h mature P. aeruginosa FRD1 biofilm, 2 h treatment, crystal violet): 3.13 µg/mL
- SYTOX green fluorescence intensity (E. coli ATCC 25922): did not increase significantly in a short time (20 min)
- membrane structure (TEM) [3]: significant alterations in membrane structure
